Laboratory results from patent US6127342A, “Method for preventing or treating a lung disease caused by active oxygen and free radical injury” (Teijin Limited, priority 1991, dated 2000).

Legend:
xanthine oxidase = assay: Xanthine oxidase activities in lung tissue, bronchoalveolar lavage fluid and serum; type: in vivo; conditions: guinea pig; OA inhalation 10 days + 10 mg/kg i.p. twice daily
Description: (§1) Male Hartley guinea pigs weighing 350-400 g were divided into three groups, i.e., the control group, the ovalbumin (OA) group and the OA+γ-GCE group. The control group was allowed to inhale an aerosol of physiological saline for 7-8 minutes per day for 10 consecutive days. The OA group was allowed to inhale an aerosol of 2% OA in the same manner. The OA+γ-GCE group was allowed to similarly inhale an aerosol of 2% OA together with intraperitoneal administration of 10 mg/kg of γ-GCE twice daily for 10 days. […] Each of the measurements were made using 6 animals in each group, and the results were expressed as mean ± standard deviation. Evaluation of significance was performed using Dunnett's test. Cases of P being less than 0.05 were considered to be statistically significant.

[1] = test system: cardiac muscle mitochondria; assay: Cardiac muscle mitochondrial function (St. III O2, RCI) after coronary ischemia-reperfusion; type: in vivo; conditions: dog; 10 mg/kg i.v. just before reperfusion; FIGS. 1A and 1B
Excerpt: Electrocardiogram electrodes were attached, and monitoring and recording were continued throughout the experiment. Following insertion of cannulas in the right femoral vein and right femoral artery, the cannulas were used for continuous intravenous drip of physiological saline to replenish water or administration of the test preparation, and monitoring of arterial blood pressure, respectively. After performing left thoracotomy in the fourth or fifth intercostal space, the pericardium was torn to expose the heart. Ischemia was induced by ligating the left anterior descending coronary artery immediately distal to the first diagonal branch, while reperfusion was performed by subsequently removing that ligation. The animals were divided into four groups. […] Mitochondria was obtained by removing the heart immediately after the end of ischemia or reperfusion, washing with cold physiological saline, promptly cutting out the ischemic or reperfused area and the normal area, and immediately performing preparation from the respective area according to the method described by […], et al. in Arch. Biochem. Biophys., Vol. 94, pp. 148-155, 1961. The glutathione content of the mitochondria was measured by applying the method described by Tietze in Anal. […] Evaluation of mitochondrial function was performed according to the method described by Sugiyama, et al. in Am. […]

[2] = test system: ovalbumin inhalation model using guinea pigs; assay: Airway responsiveness (Ach PC200) in ovalbumin inhalation model; type: in vivo; conditions: guinea pig; 2% OA aerosol 10 days; 10 mg/kg i.p. twice daily for 10 days; FIG. 3
Description: Male Hartley guinea pigs weighing 350-400 g were divided into three groups, i.e., the control group, the ovalbumin (OA) group and the OA+γ-GCE group. The control group was allowed to inhale an aerosol of physiological saline for 7-8 minutes per day for 10 consecutive days. The OA group was allowed to inhale an aerosol of 2% OA in the same manner. The OA+γ-GCE group was allowed to similarly inhale an aerosol of 2% OA together with intraperitoneal administration of 10 mg/kg of γ-GCE twice daily for 10 days.
Evaluation of efficacy was performed by measuring (1) the minimum provocative concentration of acetylcholine (Ach) at which the respiratory resistance reached more than 200% of baseline (Ach Provocative Concentration 200) both before and after inhalation for 10 days, together with measuring (2) the number of pulmonary membrane β-receptors and adenylate cyclase activity, and (3) xanthine oxidase activities in lung tissue, bronchoalveolar lavage fluid and serum, following 10 days of inhalation.
Each of the measurements were made using 6 animals in each group, and the results were expressed as mean ± standard deviation. Evaluation of significance was performed using Dunnett's test. Cases of P being less than 0.05 were considered to be statistically significant.

[3] = test system: pulmonary membrane β-receptors; assay: Number of pulmonary membrane β-receptors in ovalbumin inhalation model; type: in vivo; conditions: guinea pig; 2% OA aerosol 10 days; 10 mg/kg i.p. twice daily for 10 days; FIG. 4
Description: as §1

[4] = test system: pulmonary membrane adenylate cyclase; assay: Pulmonary membrane adenylate cyclase activity in ovalbumin inhalation model; type: in vivo; conditions: guinea pig; 2% OA aerosol 10 days; 10 mg/kg i.p. twice daily for 10 days; isoproterenol-stimulated and baseline; FIG. 5
Description: as §1

[5] = test system: cardiac muscle mitochondria; assay: Glutathione content of cardiac muscle mitochondria after coronary ischemia-reperfusion; type: in vivo; conditions: dog; for effect on reduction of mitochondrial glutathione during reperfusion / Glutathione content of cardiac muscle mitochondria, GSH + GSSG, normal area / Glutathione content of cardiac muscle mitochondria, GSH, normal area / Glutathione content of cardiac muscle mitochondria, GSSG, normal area / Glutathione content of cardiac muscle mitochondria, GSH + GSSG, ischemic or reperfused area / Glutathione content of cardiac muscle mitochondria, GSH, ischemic or reperfused area / Glutathione content of cardiac muscle mitochondria, GSSG, ischemic or reperfused area: 10 mg/kg i.v. just before reperfusion; for Glutathione content of cardiac muscle mitochondria, GSH + GSSG, normal area / Glutathione content of cardiac muscle mitochondria, GSH, normal area / Glutathione content of cardiac muscle mitochondria, GSSG, normal area / Glutathione content of cardiac muscle mitochondria, GSH + GSSG, ischemic or reperfused area / Glutathione content of cardiac muscle mitochondria, GSH, ischemic or reperfused area / Glutathione content of cardiac muscle mitochondria, GSSG, ischemic or reperfused area: 2 h ischemia / 1 h reperfusion
Description: After anesthetizing 52 adult mongrel dogs of either sex weighing ca. 10 kg by intraperitoneal administration of 50 mg/kg of sodium pentobarbital, breathing tubes were immediately intubated endotracheally and artificial ventilation was continued using a Harvard ventilator. Electrocardiogram electrodes were attached, and monitoring and recording were continued throughout the experiment. Following insertion of cannulas in the right femoral vein and right femoral artery, the cannulas were used for continuous intravenous drip of physiological saline to replenish water or administration of the test preparation, and monitoring of arterial blood pressure, respectively. After performing left thoracotomy in the fourth or fifth intercostal space, the pericardium was torn to expose the heart. Ischemia was induced by ligating the left anterior descending coronary artery immediately distal to the first diagonal branch, while reperfusion was performed by subsequently removing that ligation.
The animals were divided into four groups. Group 1 (n=9) was subjected to ischemia for 2 hours, group 2 (n=17) was subjected to ischemia for 2 hours followed by reperfusion for 1 hour, group 3 (n=10) was subjected to ischemia for 2 hours followed by reperfusion for 1 hour plus intravenous injection of 10 mg/kg of γ-GCE just before reperfusion, and group 4 (n=16) was subjected to 2 hours of ischemia followed by 1 hour of reperfusion plus intravenous injection of 10 mg/kg of reduced glutathione (GSH, control drug) just before reperfusion.
Evaluation of ischemia-reperfusion injury was performed, following completion of ischemia-reperfusion, by measuring (1) glutathione content of mitochondria, and (2) mitochondrial function, and so on, at the ischemic or reperfused area and the normal area of the heart. Mitochondria was obtained by removing the heart immediately after the end of ischemia or reperfusion, washing with cold physiological saline, promptly cutting out the ischemic or reperfused area and the normal area, and immediately performing preparation from the respective area according to the method described by Hatefi, et al. in Arch. Biochem. Biophys., Vol. 94, pp. 148-155, 1961.
The glutathione content of the mitochondria was measured by applying the method described by Tietze in Anal. Biochem., Vol. 27, pp. 502-522, 1969 to the supernatant obtained by immediately adding 1/10 vol of 27.5% (w/v) sulfosalicylic acid dihydrate aqueous solution to the prepared mitochondria suspension followed by protein denaturation and centrifugation. Evaluation of mitochondrial function was performed according to the method described by Sugiyama, et al. in Am. Heart J., Vol. 100, pp. 829-837, 1980, by polarographically measuring respiratory ability using an oxygen electrode and determining the rate of oxygen consumption is state III (St. III O2) and the respiratory control index (RCI).

[6] = in vivo; cited from earlier work

Structure (SMILES)	Xanthine oxidase activity, bronchoalveolar lavage fluid (xanthine oxidase)	Xanthine oxidase activity, lung tissue (xanthine oxidase)	Xanthine oxidase activity, serum (xanthine oxidase)	xanthine oxidase values compared with the OA group, lung tissue and bronchoalveolar lavage fluid (xanthine oxidase)	effect on reduction in cardiac muscle mitochondrial function (St. III O2, RCI) during reperfusion [1]	effect on increase in airway responsiveness (decrease in log[Ach PC200]) after OA inhalation [2]	effect on the reduction in pulmonary membrane β-receptors after OA inhalation [3]	effect on the reduction in pulmonary membrane adenylate cyclase activity after OA inhalation [4]	effect on reduction of mitochondrial glutathione during reperfusion [5]	mitochondrial glutathione levels (GSH, GSH+GSSG) of reperfused area relative to normal area after reperfusion ([5]; 10 mg/kg just before reperfusion)	Glutathione content of cardiac muscle mitochondria, GSH + GSSG, normal area [5]	Glutathione content of cardiac muscle mitochondria, GSH, normal area [5]	Glutathione content of cardiac muscle mitochondria, GSSG, normal area [5]	Glutathione content of cardiac muscle mitochondria, GSH + GSSG, ischemic or reperfused area [5]	Glutathione content of cardiac muscle mitochondria, GSH, ischemic or reperfused area [5]	Glutathione content of cardiac muscle mitochondria, GSSG, ischemic or reperfused area [5]	half-life in the blood when administered [6]
CCOC(=O)[C@H](CS)NC(=O)CC[C@H](N)C(=O)O [γ-GCE, γ-L-glutamyl-L-cysteine ethyl ester]	9.43 ± 0.95 mU/ml	33.3 ± 4.02 mU/g tissue	10.0 ± 1.77 mU/ml	significantly lower than those of the OA group	completely suppressed	inhibited (1) the remarkable increase in airway responsiveness	inhibited	inhibited	significantly suppress further reduction of glutathione during the reperfusion	85-88%	4.06 ± 0.52	3.68 ± 0.54	0.38 ± 0.09	3.57 ± 0.46	3.12 ± 0.40	0.45 ± 0.15	
N[C@@H](CCC(=O)N[C@@H](CS)C(=O)NCC(=O)O)C(=O)O [GSH, reduced glutathione, reference compound]					no protective effects were observed whatsoever				no such effects were observed		3.94 ± 0.33	3.67 ± 0.37	0.27 ± 0.08	2.44 ± 0.57	2.17 ± 0.52	0.27 ± 0.09	several minutes
